The target of series [1] is recombinant RORγ Ligand Binding Domain (LBD) protein (Homo sapiens (Human), UniProt P51449). Briefly: Radio-Ligand RORγ Binding Assay (Assay 1). The conditions noted are these: cell-free competition with 25-hydroxy [26,27-3H]-cholesterol; read-out: RORγ Binding Ki Range* (nM) (Assay 1). As to the method: Radio-Ligand ROR ? Binding Assay (Assay 1)
The plate was shaken at 700 rpm for 20 min and incubated for 10 min at rt, after which 40 μL of poly-Lys YSi SPA beads (PerkinElmer, Cat. # RPNQ0010) were added to achieve 50 μg of the beads per well. The plate was incubated on an orbital shaker for 20 min and then for 10 min without agitation at rt. SPA signal for tritium beta radiation was registered on PerkinElmer Microbeta plate reader. […] The percent inhibition vs. concentration data were fit into a four-parameter model, and IC50 values were calculated from the fit as the concentrations corresponding to the inflection points on the dose-response curves.

Series [2] concerns the target full-length RORγt in Jurkat cells (Homo sapiens (Human), UniProt P51449).
Method: ROR ? t 5×RORE Assay in Jurkat Cells (Assay 2)
Compounds of the present invention were tested for ROR ? inverse agonist activity in a cell-based, transcriptional activity assay. […] Luciferase activity in the conditioned supernatants was determined with NanoGlo® assay reagents (Promega, Cat.# N1130).
Series [3] deals with hERG potassium ion channel (Homo sapiens (Human), UniProt Q12809). Briefly: hERG Assay (Assay 4). In kind it is cell-based. The conditions noted are these: HEK293 cells stably transfected with hERG cDNA, pH 7.4, Compound at 3 μM, patch clamp, HEK 293 cells. The method, then: Compounds of the invention were tested in vitro against the hERG (human ether-a-go-go-related gene) potassium ion channel (a surrogate for IKr, the rapidly activating delayed rectifier cardiac potassium ion channel).
Sequence of hERG potassium ion channel (Q12809 whole entry): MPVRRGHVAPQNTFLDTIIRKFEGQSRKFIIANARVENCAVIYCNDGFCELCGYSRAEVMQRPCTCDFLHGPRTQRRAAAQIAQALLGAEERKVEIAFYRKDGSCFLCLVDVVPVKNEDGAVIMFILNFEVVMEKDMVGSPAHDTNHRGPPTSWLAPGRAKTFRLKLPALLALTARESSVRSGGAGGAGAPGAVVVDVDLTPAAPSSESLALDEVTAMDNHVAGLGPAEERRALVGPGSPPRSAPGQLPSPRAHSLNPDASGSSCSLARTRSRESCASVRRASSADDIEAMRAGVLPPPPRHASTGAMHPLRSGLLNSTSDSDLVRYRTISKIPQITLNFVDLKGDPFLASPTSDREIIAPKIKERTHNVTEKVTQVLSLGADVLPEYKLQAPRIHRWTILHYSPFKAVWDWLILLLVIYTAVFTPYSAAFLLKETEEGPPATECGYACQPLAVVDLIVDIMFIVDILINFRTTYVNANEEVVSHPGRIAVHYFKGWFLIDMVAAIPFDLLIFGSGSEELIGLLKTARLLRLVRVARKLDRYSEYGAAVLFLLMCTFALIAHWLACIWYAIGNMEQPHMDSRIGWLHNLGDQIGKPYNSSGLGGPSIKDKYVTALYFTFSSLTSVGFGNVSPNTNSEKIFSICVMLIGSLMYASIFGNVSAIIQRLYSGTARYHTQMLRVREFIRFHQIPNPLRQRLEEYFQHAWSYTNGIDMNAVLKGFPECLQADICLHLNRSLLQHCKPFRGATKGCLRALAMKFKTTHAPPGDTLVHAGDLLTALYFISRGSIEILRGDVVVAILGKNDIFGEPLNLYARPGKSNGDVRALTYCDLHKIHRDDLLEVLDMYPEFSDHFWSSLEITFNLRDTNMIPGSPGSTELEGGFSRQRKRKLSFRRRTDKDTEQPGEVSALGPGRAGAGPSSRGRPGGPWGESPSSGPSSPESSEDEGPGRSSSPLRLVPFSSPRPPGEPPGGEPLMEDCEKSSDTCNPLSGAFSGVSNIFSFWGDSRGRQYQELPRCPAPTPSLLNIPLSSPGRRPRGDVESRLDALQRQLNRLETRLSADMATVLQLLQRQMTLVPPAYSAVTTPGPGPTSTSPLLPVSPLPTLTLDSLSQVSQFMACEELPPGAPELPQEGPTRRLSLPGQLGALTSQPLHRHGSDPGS
The buffer was HEPES-buffered physiological saline (HB-PS) solution composed of: 137 mM NaCl, 4.0 mM KCl, 1.8 mM CaCl2, 1 mM MgCl2, 10 mM HEPES, 10 mM glucose, pH adjusted to 7.4 with NaOH, and 0.3% DMSO. Chemicals used in solution preparation were purchased from Sigma-Aldrich (St. Louis, Mo.), unless otherwise noted, and were of ACS reagent grade purity or higher.
HEK (human embryonic kidney) 293 cells were stably transfected with hERG cDNA.
For the patch clamp experiment, onset and steady state inhibition of hERG potassium current was measured using a pulse pattern with fixed amplitudes (depolarization: +20 mV for 2 s; repolarization: −50 mV for 2 s) repeated at 10 s intervals from a holding potential of −80 mV. Peak tail current was measured during the 2 s step to −50 mV. A steady state was maintained for at least 30 seconds before applying compound or positive control (cisapride). Peak tail currents were measured until a new steady state was achieved.
Data acquisition and analyses were performed using the suite of pCLAMP® (ver. 8.2) programs (MDS Analytical Technologies, Sunnyvale, Calif.). Steady state was defined by the limiting constant rate of change with time (linear time dependence). The steady state before and after each compound application was used to calculate the percentage of current inhibited at each concentration. Concentration-response data were fit to an equation of the following form: % Inhibition={1−1/[1+([Test]/IC50)N]}*100
where [Test] was the compound concentration, IC50 was the compound concentration at half-maximal inhibition, N was the Hill coefficient, and % Inhibition was the percentage of current inhibited at each compound concentration. Nonlinear least squares fits were solved with the Solver add-in for Excel 2003 (Microsoft, WA) and the IC50 was calculated.

The subject of series [4] is IL-17A production. Briefly: Human Whole Blood Assay (Assay 3). The format is cell-based. The conditions noted are these: IL-17A secretion, CytoStim, 48 h, 50% blood/media. The method, then:
Human Whole Blood Assay (Assay 3)
Compounds of the invention were tested in the human whole blood assay to measure their effects on IL-17A production as determined by cytokine secretion into 50% blood/media supernatant. Mixtures of sodium heparinized whole blood (isolated from healthy human donors) and the T cell activator CytoStim, in the presence or absence of compound, were plated in sterilized, tissue culture-treated 24-well plates. Specifically, the mixtures in each well were as follows: (1) 500 μL of whole blood, (2) 250 μL of compound diluted into RPMI-1640 media containing 10% HyClone™ FCS (Thermo Fisher Scientific, Waltham, Mass.), Gibco® Pen/Strep and Gibco® NEAA (Life Technologies, Grand Island, N.Y.), and (3) 250 μL of CytoStim (Miltenyi Biotech, Germany) diluted to a final concentration of 10 μL/mL in complete cell culture medium.
IL-17A cytokine expression was determined using 25 μL of the transferred supernatant diluted with 25 μL of Diluent 43 from the Human IL-17A V-PLEX™ kit (cat. # K151RFD-4, Meso Scale Discovery, Rockville, Md.). The assay was performed according to the manufacturer's instructions using included reagents. The IL-17A V-PLEX™ plates were read using the Meso Scale Discovery Imager (Model 1200).

Sequence of full-length RORγt in Jurkat cells (P51449 other isoform, or with tags, fused parts or gaps): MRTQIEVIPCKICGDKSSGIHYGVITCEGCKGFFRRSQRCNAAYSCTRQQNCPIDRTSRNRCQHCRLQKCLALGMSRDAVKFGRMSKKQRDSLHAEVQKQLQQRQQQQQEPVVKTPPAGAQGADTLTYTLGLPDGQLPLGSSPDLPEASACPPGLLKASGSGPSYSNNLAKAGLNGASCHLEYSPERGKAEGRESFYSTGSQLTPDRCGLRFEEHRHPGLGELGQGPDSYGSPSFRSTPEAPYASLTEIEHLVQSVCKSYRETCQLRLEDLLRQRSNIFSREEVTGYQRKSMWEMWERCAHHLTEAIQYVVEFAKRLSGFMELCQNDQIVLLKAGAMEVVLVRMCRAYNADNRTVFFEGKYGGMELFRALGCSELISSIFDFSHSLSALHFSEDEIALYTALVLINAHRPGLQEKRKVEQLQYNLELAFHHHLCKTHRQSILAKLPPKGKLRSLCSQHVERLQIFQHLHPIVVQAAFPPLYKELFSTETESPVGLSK
Sequence of recombinant RORγ Ligand Binding Domain (LBD) protein (P51449 269-508): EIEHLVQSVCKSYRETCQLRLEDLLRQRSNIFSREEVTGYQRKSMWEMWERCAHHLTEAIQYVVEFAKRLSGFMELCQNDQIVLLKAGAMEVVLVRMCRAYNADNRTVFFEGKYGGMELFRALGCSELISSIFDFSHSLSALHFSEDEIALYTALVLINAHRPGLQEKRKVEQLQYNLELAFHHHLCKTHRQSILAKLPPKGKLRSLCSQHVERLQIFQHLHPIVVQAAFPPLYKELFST

Take `CC[C@H]1c2ncc(C(=O)N[C@@H](CO)c3ccc(S(=O)(=O)CC)cc3)cc2CN1C[C@H]1CC[C@H](C(F)(F)F)OC1` (single isomer, unassigned) [Compound 10]: in series [1], the Ki is less than 100 nM. Besides, the IC50 in series [2] is less than 0.1 µM. As to `CC[C@H]1c2ncc(C(=O)N[C@@H](CO)c3ccc(S(=O)(=O)CC)cc3)cc2CN1C[C@@H]1CC[C@@H](C(F)(F)F)OC1` (single isomer, unassigned) [Compound 11], the Ki in series [1] was less than 100 nM. In series [2], the IC50 is less than 0.1 µM. As for `CCS(=O)(=O)c1ccc([C@H](CO)NC(=O)c2cnc3c(c2)CN(C[C@H]2CC[C@H](C(F)(F)F)CO2)[C@H]3C(C)C)cc1` (single isomer, unassigned) [Compound 15], in series [1], the Ki was less than 100 nM. The concentration for half-maximal inhibition (IC50) in series [2] was less than 0.1 µM. For `CCS(=O)(=O)c1ccc([C@H](CO)NC(=O)c2cnc3c(c2)CN(C[C@@H]2CC[C@H](C(F)(F)F)CO2)[C@H]3C(C)C)cc1` (single isomer, unassigned) [Compound 18], the inhibition constant Ki in series [1] was less than 100 nM. The same compound returned a half-inhibitory concentration (IC50) in series [2] greater than 1 µM.

On to `CCS(=O)(=O)c1ccc([C@H](CO)NC(=O)c2cnc3c(c2)CN(C[C@H]2CC[C@@H](C(F)(F)F)CO2)[C@H]3C(C)C)cc1` (single isomer, unassigned) [Compound 21], for which the Ki in series [1] is less than 100 nM. This compound also returned an IC50 in series [2] greater than 1 µM.

Take `CCS(=O)(=O)c1ccc([C@H](CO)NC(=O)c2cnc3c(c2)CN(C)[C@@H]3Cc2ccccc2)cc1` (single isomer, unassigned) [Compound 34]: the Ki in series [1] was in the range of 100 to 1000 nM. With `CCS(=O)(=O)c1ccc([C@H](NC(=O)c2cnc3c(c2)CN(C[C@H]2CC[C@H](C(F)(F)F)CC2)[C@H]3C(C)C)[C@H](C)O)cc1` (single isomer, unassigned) [Compound 39], the inhibition at 3 µM in series [3] worked out at 32.7%. In addition, the inhibition constant Ki in series [1] was less than 100 nM. Also, the IC50 in series [2] was less than 0.1 µM. In turn, `CCS(=O)(=O)c1ccc([C@@H](NC(=O)c2cnc3c(c2)CN(C[C@H]2CC[C@H](C(F)(F)F)CC2)[C@H]3C(C)C)[C@@H](C)O)cc1` (single isomer, unassigned) [Compound 42] had an inhibition at 3 µM in series [3] of 63.9%. Besides, the inhibition constant (Ki) in series [1] is less than 100 nM. Further, the IC50 in series [2] is less than 0.1 µM. For the compound `CCS(=O)(=O)c1ccc([C@H](CO)NC(=O)c2cnc3c(c2)CN(C[C@@H]2CC[C@@H](C(F)(F)F)OC2)[C@H]3C(C)C)nc1` [Compound 1], the Ki in series [1] was less than 100 nM. Moreover, the half-inhibitory concentration (IC50) in series [2] is less than 0.1 µM; in series [4] it was less than 100 nM.

`CCS(=O)(=O)c1ccc([C@H](CO)NC(=O)c2cnc3c(c2)CN(C[C@@H]2CC[C@@H](C(F)(F)F)OC2)[C@H]3C(C)C)cc1` [Compound 2]: the inhibition constant (Ki) in series [1] is less than 100 nM. In series [2], this compound showed an IC50 of less than 0.1 µM.

On to `CCS(=O)(=O)c1ccc(C(C)(CO)NC(=O)c2cnc3c(c2)CN(C[C@H]2CC[C@H](C(F)(F)F)CC2)[C@H]3C(C)C)cc1` (some centres unmarked) [Compound 7], for which the inhibition constant (Ki) in series [1] was less than 100 nM. With `CCS(=O)(=O)c1ccc([C@H](CO)NC(=O)c2cnc3c(c2)CN(C[C@@H]2CC[C@@H](C(F)(F)F)CO2)[C@H]3C(C)C)cc1` [Compound 14], the inhibition constant Ki in series [1] was less than 100 nM. Further, in series [2], the 50% inhibitory concentration (IC50) is less than 0.1 µM.

Regarding `CCS(=O)(=O)c1ccc([C@H](CO)NC(=O)c2cnc3c(c2)CN(CC(F)(F)F)[C@@H]3Cc2ccccc2)cc1` [Compound 19], in series [1], the Ki was less than 100 nM. In the case of `CCS(=O)(=O)c1ccc([C@H](CO)NC(=O)c2cnc3c(c2)CN(CC(F)(F)F)[C@H]3Cc2ccccc2)cc1` [Compound 22], the Ki in series [1] is less than 100 nM. Consider `CCS(=O)(=O)c1ccc([C@H](CO)NC(=O)c2cnc3c(c2)CN(C[C@H]2CC[C@H](C(F)(F)F)CC2)C3C(F)(F)F)cc1` (some centres unmarked) [Compound 23], for which, in series [1], the inhibitory constant (Ki) was less than 100 nM.

As to `CC[C@H]1c2ncc(C(=O)N[C@@H](CO)c3ccc(S(C)(=O)=O)cc3)cc2CN1C[C@H]1CC[C@H](C(F)(F)F)CC1` [Compound 24], the Ki in series [1] is less than 100 nM. In series [2], this compound came in with an IC50 of less than 0.1 µM.

Regarding `CCS(=O)(=O)c1ccc([C@H](CO)NC(=O)c2cnc3c(c2)CN(C[C@H]2CC[C@H](C(F)(F)F)CC2)[C@H]3C)cc1` [Compound 26], the inhibition constant Ki in series [1] was less than 100 nM. In the case of `CCS(=O)(=O)c1ccc([C@H](CO)NC(=O)c2cnc3c(c2)CN(C[C@H]2CC[C@H](C(F)(F)F)CC2)[C@H]3CC2CCOCC2)cc1` [Compound 27], the Ki in series [1] was less than 100 nM.

With `CCS(=O)(=O)c1ccc([C@H](CO)NC(=O)c2cnc3c(c2)CN(C[C@H]2CC[C@H](C(F)(F)F)CC2)[C@@H]3C)cc1` [Compound 28], the Ki in series [1] is greater than 1000 nM. On to `CCS(=O)(=O)c1ccc([C@@H](NC(=O)c2cnc3c(c2)CN(C[C@H]2CC[C@H](C(F)(F)F)CC2)[C@H]3C(C)C)[C@@H](C)O)cc1` [Compound 29], for which the Ki in series [1] lay within 100 to 1000 nM.

Regarding `CCS(=O)(=O)c1ccc([C@@H](NC(=O)c2cnc3c(c2)CN(C[C@H]2CC[C@H](C(F)(F)F)CC2)[C@H]3C(C)C)[C@@H](C)O)cc1` [Compound 30], the Ki in series [1] fell in the range of 100 to 1000 nM. For `CCS(=O)(=O)c1ccc([C@H](CO)NC(=O)c2cnc3c(c2)CN(C[C@H]2CC[C@H](C(F)(F)F)CC2)[C@H]3C2CCOCC2)cc1` [Compound 31], the Ki in series [1] is less than 100 nM. In the case of `CC[C@H]1c2ncc(C(=O)N[C@@H](CO)c3ccc(S(=O)(=O)CC)cn3)cc2CN1C[C@H]1CC[C@H](C(F)(F)F)CC1` [Compound 33], testing at 3 µM in series [3] gave an inhibition of 29.1%.

As to `CCS(=O)(=O)c1ccc([C@H](CO)NC(=O)c2cnc3c(c2)CN(C[C@H]2CC[C@H](C(F)(F)F)CC2)[C@H]3Cc2ccccc2)cc1` [Compound 37], the Ki in series [1] is less than 100 nM. In series [3], `CC[C@H]1c2ncc(C(=O)N[C@@H](CO)c3ccc(S(=O)(=O)CC)cc3)cc2CN1C[C@H]1CC[C@H](C(F)(F)F)CC1` [Compound 41, (S)-7-ethyl-N—((R)-1-(4-(ethylsulfonyl)phenyl)-2-hydroxyethyl)-6-((trans-4-(trifluoromethyl)cyclohexyl)methyl)-6,7-dihydro-5H-pyrrolo[3,4-b]pyridine-3-carboxamide] displayed an inhibition at 3 µM of 7.7%. Regarding `CCO[C@H]1CC[C@H](CN2Cc3cc(C(=O)N[C@@H](CO)c4ccc(S(=O)(=O)CC)cc4)cnc3[C@@H]2C(C)C)CC1` [Compound 43], the Ki in series [1] is less than 100 nM. `CCS(=O)(=O)c1ccc([C@@H](CO)NC(=O)c2cnc3c(c2)CN(C[C@H]2CC[C@H](C(F)(F)F)CC2)[C@H]3C(C)C)nc1` [Compound 44] showed an inhibition at 3 µM in series [3] of 28.6%. In turn, `CCS(=O)(=O)c1ccc([C@H](CO)NC(=O)c2cnc3c(c2)CN(C[C@H]2CC[C@H](C(F)(F)F)CC2)[C@H]3C(C)C)cc1` [Compound 46, (S)—N—((R)-1-(4-(ethylsulfonyl)phenyl)-2-hydroxyethyl)-7-isopropyl-6-((trans-4-(trifluoromethyl)cyclohexyl)methyl)-6,7-dihydro-5H-pyrrolo[3,4-b]pyridine-3-carboxamide] showed an inhibition at 3 µM in series [3] of 44.3%. Also, the Ki in series [1] is less than 100 nM. As for `CCS(=O)(=O)c1ccc([C@@H](CO)NC(=O)c2cnc3c(c2)CN(C[C@H]2CC[C@H](C(F)(F)F)CC2)[C@H]3C(C)C)cc1` [Compound 47], the Ki in series [1] is less than 100 nM.

These data come from patent US9796710B2, “Dihydropyrrolopyridine inhibitors of ROR-gamma” (Vitae Pharmaceuticals, Inc., priority 2014, dated 2017).
